According to patent publication US9688651B2, “Geranyl geranyl acetone analogs and uses thereof” (NYKEN Holding B.V., priority 2012, dated 2017):
“Also recorded” adds a separate entry of the source.

How the values were obtained:
HSP70 [1] = assay: HSP70 protein boosting in HL-1 cardiomyocytes after mild heat shock (Western blot); format: cell-based, mouse; set-up: key to HSP boosting HL-1 cardiomyocytes Protein HSP70: 0 = no induction HSP levels; + = 2-10-fold induction; ++ = 10-30-fold induction; +++ = > 30-fold induction; details: mild heat shock 44°C 10 min, then compound 10 μM for 6 hours; Western blot
Protocol: HL-1 atrial myocytes, a cell line derived from adult mouse atria were obtained from Dr. William Claycomb (Louisiana State University, New Orleans, La., USA). The myocytes were maintained in Complete Claycomb Medium (JRH, UK) supplemented with 100 μM norepinephrine stock (consisting of 10 mM norepinephrine (Sigma, The Netherlands) dissolved in 0.3 mM L-ascorbic acid (Sigma)), 4 mM L-glutamine (Gibco, The Netherlands) and 10% FBS (Sigma). The myocytes were cultured in flasks coated with 0.02% gelatin (Sigma), in a 5% CO2 atmosphere at 37° C.
HL-1 cardiomyocytes were subjected to a mild heat shock of 44° C. for 10 minutes. After a recovery of 10 minutes (37 degrees 5% CO2), compounds were added in a final concentration of 10 μM (dissolved in DMSO, final concentration 0.1%). To control myocytes, 0.1% DMSO was added. After six hours the cells were lysed in RIPA buffer and used for Western blotting as described previously.^3, 10
(§1) Western-blot analysis was performed as described previously^3, 10. Equal amount of protein in SDS-PAGE sample buffer was sonicated before separation on 10% PAA-SDS gels. After transfer to nitrocellulose membranes (Stratagene, The Netherlands), membranes were incubated with primary antibodies against HSP25 (Stressgen, The Netherlands, SPA-801, 1:1000), HSP27 (Stressgen, SPA-800, 1:1000), HSP70 (Stressgen, SPA-810, 1:1000), GAPDH (Affinity Reagents, The Netherlands) or PARP (Santa Cruz, The Netherlands, sc-7150, 1:500). Horseradish peroxidase-conjugated anti-mouse or anti-rabbit (Santa-Cruz Biotechnology, The Netherlands) was used as secondary antibody. Signals were detected by the ECL-detection method (Amersham, The Netherlands) and quantified by densitometry using GeneTools software from Syngene (The Netherlands).
Compounds were also screened for HSP70 boosting effects. Hereto, HL-1 cardiomyocytes were first subjected to a mild heat shock which activates the Heat Shock Factor. After the mild heat shock, compound (10 μM) was added to the medium of HL-1 cardiomyocytes for 6 hours, followed by determination of the HSP70 amount.

[2] = system: MCF-7 breast cancer cells; assay: MCF-7 cell death, ratio death/living cells (trypan blue); format: cell-based, human; set-up: key to Cell Death MCF-7 cancer cells Death/living 100 μM: 0 = no dead cells; + = P < 0.05; ++ = P < 0.01; +++ = P < 0.001; details: for Cell Death MCF-7 cancer cells Death/living 100 μM: 16-20 hours, trypan blue; for cell death in MCF-7: 10 μM, 16 hours
Protocol: MCF-7 breast cancer cells were cultured in DMEM supplemented with 10% FCS. […] Ratio death and living cells was determined by using trypan blue staining of death cells. The cell pellets were lysed in RIPA buffer and used for Western blot analysis.
Since we observed that some compounds aggravate tachypacing-induced contractile dysfunction, we next investigated if these compounds can induce programmed cell death in a human breast cancer cell-line MCF-7. […] In total 28 compounds were tested for cell death. […] GGA was used as a control as well as non-treated MCF-7 cells. […] The findings indicate that GGA-like compounds which aggravate heart failure can induce programmed cell death in MCF-7 breast cancer cell-line.

HSP27 = HSP27 Western blot in MCF-7 cells; format: cell-based, human; set-up: key: + = P < 0.05; ++ = P < 0.01; +++ = P < 0.001; details: MCF-7 lysate, 16-20 hours
Protocol: (§2) MCF-7 breast cancer cells were cultured in DMEM supplemented with 10% FCS. Test compounds were added to the medium in a final concentration of […] for 16-20 hours. Ratio death and living cells was determined by using trypan blue staining of death cells. The cell pellets were lysed in RIPA buffer and used for Western blot analysis.
as §1

HSP70 [3] = assay: HSP70 Western blot in MCF-7 cells; format: cell-based, human; set-up: key: + = P < 0.05; ++ = P < 0.01; +++ = P < 0.001; details: MCF-7 lysate, 16-20 hours
Protocol: as §2, §1

PARP = PARP cleavage in MCF-7 cells (Western blot); format: cell-based, human; set-up: key to Cell Death MCF-7 cancer cells PARP: 0 = no dead cells; + = P < 0.05; ++ = P < 0.01; +++ = P < 0.001; details: for Cell Death MCF-7 cancer cells PARP: MCF-7 lysate, Western blot, 16-20 hours; for PARP cleavage, indicative of pro-apoptotic caspase activation: MCF-7, 10 μM, 16 hours
Protocol: as §2, §1
Since we observed that some compounds aggravate tachypacing-induced contractile dysfunction, we next investigated if these compounds can induce programmed cell death in a human breast cancer cell-line MCF-7. Hereto, MCF-7 cells were incubated for 16 hours with 10 μM of a test compound after which the number of death and living cells was determined. In total 28 compounds were tested for cell death. […] GGA was used as a control as well as non-treated MCF-7 cells. […] The findings indicate that GGA-like compounds which aggravate heart failure can induce programmed cell death in MCF-7 breast cancer cell-line.

CCOC(=O)C(=Cc1ccccc1)C(=O)CCC=C(C)CCC=C(C)C (mixture of isomers) [Compound 84]
HSP boosting HL-1 cardiomyocytes Protein HSP70 (HSP70 [1]): + (+ = 2-10-fold induction)

CCOC(=O)CC(=O)CC/C=C(\C)CCC=C(C)C [Compound 21, (E)-Ethyl 7,11-dimethyl-3-oxododeca-6,10-dienoate]
HSP boosting HL-1 cardiomyocytes Protein HSP70 (HSP70 [1]): 0

CCOC(=O)C(C)C(=O)CC/C=C(\C)CCC=C(C)C (centres unmarked) [Compound 22]
HSP boosting HL-1 cardiomyocytes Protein HSP70 (HSP70 [1]): 0

CCCCCC(C(=O)CC/C=C(\C)CCC=C(C)C)C(=O)OCC (centres unmarked) [Compound 24]
HSP boosting HL-1 cardiomyocytes Protein HSP70 (HSP70 [1]): 0

CC(C)=CCC/C(C)=C/CCc1cc(C)n(C)n1 [Compound 33]
HSP boosting HL-1 cardiomyocytes Protein HSP70 (HSP70 [1]): + (+ = 2-10-fold induction)

CC(C)=CCC/C(C)=C/CCc1cc(C)n(CCC#N)n1 [Compound 34]
HSP boosting HL-1 cardiomyocytes Protein HSP70 (HSP70 [1]): 0

CC(C)=CCC/C(C)=C/CCc1cc(C)n(CCO)n1 [Compound 35]
HSP boosting HL-1 cardiomyocytes Protein HSP70 (HSP70 [1]): 0

CC(C)=CCC/C(C)=C/CCc1cc(C)nn1-c1ccc(F)cc1 [Compound 39]
HSP boosting HL-1 cardiomyocytes Protein HSP70 (HSP70 [1]): 0
Cell Death MCF-7 cancer cells Death/living 100 μM [2]: 0
Cell Death MCF-7 cancer cells HSP 27 (HSP27): + (+ = P < 0.05)
Cell Death MCF-7 cancer cells HSP 70 (HSP70 [3]): 0
Cell Death MCF-7 cancer cells PARP (PARP): 0

CC(C)=CCC/C(C)=C/CCc1cc(C)nn1-c1ccccc1F [Compound 40]
HSP boosting HL-1 cardiomyocytes Protein HSP70 (HSP70 [1]): 0

CC(C)=CCC/C(C)=C/CCc1cc(C)nn1-c1ccc(C#N)cc1 [Compound 41]
HSP boosting HL-1 cardiomyocytes Protein HSP70 (HSP70 [1]): 0
cell death in MCF-7 [2]: significant increase in cell death; also recorded: induce cell death
Cell Death MCF-7 cancer cells Death/living 100 μM [2]: + (+ = P < 0.05)
Cell Death MCF-7 cancer cells HSP 27 (HSP27): + (+ = P < 0.05)
Cell Death MCF-7 cancer cells HSP 70 (HSP70 [3]): 0
PARP cleavage, indicative of pro-apoptotic caspase activation (PARP): induced PARP cleavage
Cell Death MCF-7 cancer cells PARP (PARP): + (+ = P < 0.05)

CC(=O)NC/C=C(\C)CCC=C(C)C [Compound 43]
HSP boosting HL-1 cardiomyocytes Protein HSP70 (HSP70 [1]): 0

CCNC(=O)NC/C=C(\C)CCC=C(C)C [Compound 44]
HSP boosting HL-1 cardiomyocytes Protein HSP70 (HSP70 [1]): 0

CC(C)=CCC/C(C)=C/CNC(=O)Nc1cccc(F)c1 [Compound 45]
HSP boosting HL-1 cardiomyocytes Protein HSP70 (HSP70 [1]): 0
cell death in MCF-7 [2]: significant increase in cell death; also recorded: induce cell death
Cell Death MCF-7 cancer cells Death/living 100 μM [2]: ++ (++ = P < 0.01)
Cell Death MCF-7 cancer cells HSP 27 (HSP27): 0
PARP cleavage, indicative of pro-apoptotic caspase activation (PARP): induced PARP cleavage
Cell Death MCF-7 cancer cells PARP (PARP): ++ (++ = P < 0.01)

CC(C)=CCC/C(C)=C/CNS(=O)(=O)c1ccc(C)cc1 [Compound 53]
HSP boosting HL-1 cardiomyocytes Protein HSP70 (HSP70 [1]): + (+ = 2-10-fold induction)

CC(C)=CCC/C(C)=C/CNC(=O)CS(C)(=O)=O [Compound 56]
HSP boosting HL-1 cardiomyocytes Protein HSP70 (HSP70 [1]): 0
Cell Death MCF-7 cancer cells Death/living 100 μM [2]: 0
Cell Death MCF-7 cancer cells HSP 27 (HSP27): 0
Cell Death MCF-7 cancer cells HSP 70 (HSP70 [3]): 0
Cell Death MCF-7 cancer cells PARP (PARP): 0

CC(C)=CCC/C(C)=C/CCc1cc(O)nn1C [Compound 64]
HSP boosting HL-1 cardiomyocytes Protein HSP70 (HSP70 [1]): 0

CC(C)=CCC/C(C)=C/CCc1cc(O)nn1Cc1ccccc1 [Compound 65]
HSP boosting HL-1 cardiomyocytes Protein HSP70 (HSP70 [1]): 0
cell death in MCF-7 [2]: significant increase in cell death; also recorded: induce cell death
Cell Death MCF-7 cancer cells Death/living 100 μM [2]: ++ (++ = P < 0.01)
Cell Death MCF-7 cancer cells HSP 27 (HSP27): +++ (+++ = P < 0.001)
Cell Death MCF-7 cancer cells HSP 70 (HSP70 [3]): ++ (++ = P < 0.01)
PARP cleavage, indicative of pro-apoptotic caspase activation (PARP): induced PARP cleavage
Cell Death MCF-7 cancer cells PARP (PARP): ++ (++ = P < 0.01)

CC(C)=CCC/C(C)=C/Cc1c(O)c2ccccc2oc1=O [Compound 66]
HSP boosting HL-1 cardiomyocytes Protein HSP70 (HSP70 [1]): 0
Cell Death MCF-7 cancer cells Death/living 100 μM [2]: 0
Cell Death MCF-7 cancer cells HSP 27 (HSP27): + (+ = P < 0.05)
Cell Death MCF-7 cancer cells HSP 70 (HSP70 [3]): ++ (++ = P < 0.01)
PARP cleavage, indicative of pro-apoptotic caspase activation (PARP): induced PARP cleavage
Cell Death MCF-7 cancer cells PARP (PARP): + (+ = P < 0.05)

CCCC(C(=O)CC/C=C(\C)CCC=C(C)C)C(=O)OCC (centres unmarked) [Compound 70]
HSP boosting HL-1 cardiomyocytes Protein HSP70 (HSP70 [1]): 0
Cell Death MCF-7 cancer cells Death/living 100 μM [2]: 0
Cell Death MCF-7 cancer cells HSP 27 (HSP27): +++ (+++ = P < 0.001)
Cell Death MCF-7 cancer cells HSP 70 (HSP70 [3]): ++ (++ = P < 0.01)
Cell Death MCF-7 cancer cells PARP (PARP): 0

CCOC(=O)C(CC(=O)O)C(=O)CC/C=C(\C)CCC=C(C)C (centres unmarked) [Compound 78]
HSP boosting HL-1 cardiomyocytes Protein HSP70 (HSP70 [1]): 0
Cell Death MCF-7 cancer cells Death/living 100 μM [2]: 0
Cell Death MCF-7 cancer cells HSP 27 (HSP27): ++ (++ = P < 0.01)
Cell Death MCF-7 cancer cells HSP 70 (HSP70 [3]): 0
PARP cleavage, indicative of pro-apoptotic caspase activation (PARP): induced PARP cleavage
Cell Death MCF-7 cancer cells PARP (PARP): + (+ = P < 0.05)

CCOC(=O)C(C/C=C(\C)CCC=C(C)C)C(C)=O (centres unmarked) [Compound 81]
HSP boosting HL-1 cardiomyocytes Protein HSP70 (HSP70 [1]): 0

CCOC(=O)C(C(=O)CC/C=C(\C)CCC=C(C)C)C(C)C(=O)O (centres unmarked) [Compound 82]
HSP boosting HL-1 cardiomyocytes Protein HSP70 (HSP70 [1]): 0

CCCC(=O)NC/C=C(\C)CCC=C(C)C [Compound 91]
HSP boosting HL-1 cardiomyocytes Protein HSP70 (HSP70 [1]): + (+ = 2-10-fold induction)

CCOC(=O)C(=O)NC/C=C(\C)CCC=C(C)C [Compound 97]
HSP boosting HL-1 cardiomyocytes Protein HSP70 (HSP70 [1]): 0

CC(C)=CCC/C(C)=C/CNC(=O)c1ccccc1O [Compound 101]
HSP boosting HL-1 cardiomyocytes Protein HSP70 (HSP70 [1]): 0
cell death in MCF-7 [2]: significant increase in cell death; also recorded: induce cell death
Cell Death MCF-7 cancer cells Death/living 100 μM [2]: ++ (++ = P < 0.01)
Cell Death MCF-7 cancer cells HSP 27 (HSP27): 0
PARP cleavage, indicative of pro-apoptotic caspase activation (PARP): induced PARP cleavage
Cell Death MCF-7 cancer cells PARP (PARP): ++ (++ = P < 0.01)

CCCC(=O)N(C/C=C(\C)CCC=C(C)C)C(=O)CCC [Compound 127]
HSP boosting HL-1 cardiomyocytes Protein HSP70 (HSP70 [1]): 0
Cell Death MCF-7 cancer cells Death/living 100 μM [2]: 0
Cell Death MCF-7 cancer cells HSP 70 (HSP70 [3]): 0
Cell Death MCF-7 cancer cells PARP (PARP): 0

CCCC(=O)C(CC)C(=O)N(C/C=C(\C)CCC=C(C)C)C(=O)CCC (centres unmarked) [Compound 128]
HSP boosting HL-1 cardiomyocytes Protein HSP70 (HSP70 [1]): 0
